Test results as given in patent publication US20070123467A1, “Amniotic-derived peptide and uses thereof” (priority 2003, published 2007).
Residues, ends and D or L forms follow the SMILES beside them.

Tests used:
[1] = tested on: LPS-induced lethality in mice; test: Potency of LAP in counteracting lethality induced by a DL100 dose of LPS (Example 3); format: in vivo, CD1 mice; details: for Lethality 24 h / Lethality 24 h (dead/total) / Lethality 48 h / Lethality 48 h (dead/total) / Lethality 72 h / Lethality 72 h (dead/total): LPS 1 mg/mouse
Source text: Synthetic peptide or Lajor Active Peptide (LAP) was synthesized chemically to produce the amino acid sequence of the previously-identified bioactive peptide contained in Fractions 2, 3 and 4 of the low molecular weight components of PLB. […] Mice treated with Fraction 4 prepared from PLB were used as positive controls.
Six weeks old female CD1 mice (Charles River, Calco, Italy) were used. The mice were allowed to adapt one week to their environment before commencing the study. They were kept under standard laboratory condition with ad libitum food and water.
The mice were injected i.p. with 1 mg of lipopolysaccharide (LPS) (Sigma Chimica, Milan, Italy). Mortality was recorded every 24 hours up to 72 hours after challenge with LPS.

IL-10 = test: Blood levels of IL-10, ELISA (Example 14); format: in vivo, mouse
Method: (§1) Plasma samples were obtained by blood obtained from individual mice at sacrifice. TNF-α, IFN-γ and IL-10 were measured by mouse specific solid-phase ELISA according to the manufacturer's (Celbio Euroclone, Milan, Italy) instructions. Intra and inter-assays coefficient of variations were within 10%. The limit of sensitivity of the assays were 7 pg/ml. For statistical analysis, samples with undetectable amounts of cytokine were assigned 7 pg as theoretical value.
(§2) Injection of LPS is associated with a marked increase in the blood levels of both type 1 (IFN-γ, TNF-α, IL-1) and type 2 (IL-10) cytokines that occurs with different kinetic after the inoculation of the toxin. To evaluate the effects of LAP treatment on LPS-induced cytokine increase in the circulation of the mice, experiments were carried out where mice treated with 10 mcg LAP or its vehicle, were sacrificed just before injection of a sublethal dose of LPS one hour after treatment with either LAP or PBS (T0) and then 2 (T2) and 8 (T8) hours after LPS.

[2] = tested on: auto-immune diabetes in the NOD mouse; test: LAP in development of insulitis and auto-immune diabetes in NOD mouse (Example 16)
Source text: (§3) Female NOD mice (Charles River, Calco, Italy) were maintained under standard laboratory conditions (non-specific pathogen free) with free access to food and water. During the study period of diabetes prevention the mice were screened for diabetes development twice a week by means of glycosuria followed, when positive, by measurement of glycaemia. Mice are diagnosed as diabetic when fasting glycaemia is above 12 mmol/l for 2 consecutive days.
(§4) Euglycaemic female NOD mice were randomly allocated into 4 different groups receiving either LAP or vehicle starting at the 4th or at the 12th week of age. Because insulitis is virtually absent in 4-week-old NOD mice and is actively ongoing at 12 weeks, this approach allowed us to investigate the effects of LAP-treatment in both the early and late diabetogenic stages of the NOD mouse. The readout of the early prohylactic treatment was to evaluate the effect of LAP on development of insulitis, while the readout of the late prophylactic treatment was to evaluate the effect of LAP on the incidence of clinically overt diabetes.
(§5) For the early prophylactic treatment 4-week-old NOD mice were treated with either 10 mcg LAP (dissolved and diluted [100 mcl final volume] as described in Example 14 and 15) or 100 mcl vehicle, daily, six times weekly until the age of 14 weeks. At this point, the euglycaemic mice were sacrificed and their pancreatic specimens collected for histological examination of insulitis.
(§6) For the late prophylactic treatment, 12-week-old NOD mice were randomly divided into two experimental groups, one treated with LAP and the other with vehicle, under the same experimental regime described for the early prophylactic treatment.
(§7) Histological examination of the pancreatic islets was performed in a blind fashion by two pathologists unaware of the status and/or the treatment of the animals, as described previously (See 16-3 to 16-5). The degree of mononuclear cell infiltration is graded as follows: 0, no infiltrate; 1, peri-ductular infiltrate; 2, peri-islet infiltrate; 3, intra-islet infiltrate; 4, intra-islet infiltrate associated with β-cell destruction. At least 12 islets are counted for each mouse. The mean score for each pancreas is calculated by dividing the total score by the numbers of islets.

Con A-induced hepatitis = Con A-induced hepatitis in mice, plasma ALAT, LAP prophylaxis (Example 15); format: in vivo, CD1 male mice
Method: Eight weeks old outbred CD1 male mice (Charles River, Calco, Italy) were kept under standard laboratory conditions (non-specific pathogen free) at 24° C. with free access to food and water. The food was withdrawn 16 hours prior to the experiments.
Con A (Sigma Chemical, St. Louis, Mo.), dissolved in sterile phosphate-buffered saline (PBS) was injected into the tail veins. The groups were treated with either LAP (dissolved volume/volume in trifluoroacetic acid 0.1% in water and Na2HPO4 and then further diluted in water for injection), or its vehicle, 1 hour prior to and one hour after Con A. An additional group of control mice was injected with Con A and received no treatment. Finally, other two groups of mice were also included for comparison that were either injected i.v. with PBS or received no treatment (Table 8). LAP, its vehicle, PBS and Con A were all injected in a final volume of 100 microliter (mcl). The animals were sacrificed for blood collection 8 hours after Con A injection, when biochemical and signs (transaminases increase) of hepatic injury are pronounced (15-1 to 15-9). Mice dead before sacrifice (Table 8) were not included.
Plasma alanine aminotransferase (ALAT) activity was determined by a standard photometric assay using a bichromatic analyzer. Results are expressed in U/L
Results are shown as mean values ±SD. Statistical analysis was performed by one way ANOVA. The effect of LAP was considered to be statistically significant when the difference of ALAT blood levels versus controls yields a p value at least lower than 0.05.

IFN-γ = test: LPS-induced blood levels of IFN-γ, ELISA (Example 14); format: in vivo, mouse; details: 10 mcg LAP; 2 and 8 hours after LPS
Method: as §1, §2

[3] = tested on: auto-immune diabetes in the NOD mouse; details: in vivo
Source text: as §3, §4, §5, §6, §7

LPS-induced lethality = test: Time and dose effects of LAP on LPS-induced lethality (Example 14); format: in vivo, CD1 mice; details: 1 mg LPS i.p.
Method: To induce lethal endotoxemia, the mice were injected i.p. with 1 mg lipopolysaccharide (LPS, Cod. L6011, lot 112K4063, Sigma Chimica, Milan, Italy). LAP was provided by Lajor BioTech (Pittsburgh, Pa. USA), dissolved volume/volume in trifluoroacetic acid 0.1% in water and Na2HPO4 and injected ip in a final volume of 100 mcl.
Statistical analysis was performed by chi-square for lethality and one way ANOVA for cytokine measurements. P values lower than 0.05 were taken as significant.

TNF-α = test: LPS-induced blood levels of TNF-α, ELISA (Example 14); format: in vivo, mouse; details: 10 mcg LAP
Method: as §1, §2

CD4+CD25− T cells = test: T cell proliferation assay, thymidine incorporation (Example 21); format: cell-based, Balb/c mouse
Method: T cell proliferation assays were set up as follows. Antigen presenting cells (APCs) obtained as single cell suspension from Balb/c mouse spleens were pulsed with fecal extract (from Balb/C mice) overnight in 24 well-plate (1×10^6 cells/ml with 400 μg/ml of extract). Responding cells were obtained from Balb/c mouse spleens as CD4^+CD25^− T cells. CD4+ T cells were selected by DYNABEADS, and CD4^+CD25^− T cells were then selected using labelled anti-CD25 antibody (e.g. PE-labelled anti-CD25). Responding T cells were co-cultured with APC in 96 round bottom well-plate (3.3×10^4 responding cell/1×10^5 APC in 200 μl) in the presence or absence of LAP for 5 days. Immune cell proliferation was then determined by standard thymidine incorporation assays.

## CC[C@H](C)[C@H](NC(=O)[C@H](CCC(=O)O)NC(=O)[C@@H](NC(=O)[C@H](C)NC(=O)[C@H](CO)NC(=O)[C@@H](NC(=O)[C@@H](N)CC(N)=O)C(C)C)C(C)C)C(=O)N[C@@H](C)C(=O)O [LAP, NH2-NVSAVEIA-COOH] (H-NVSAVEIA-OH)
[1]; 2.5 mcg at −24, −1 h
  Lethality 24 h: 10%
  Lethality 24 h (dead/total): (2/20)
  Lethality 48 h: 35%
  Lethality 48 h (dead/total): (7/20)
  Lethality 72 h: 80%
  Lethality 72 h (dead/total): (16/20)
[1]; 10 mcg at −24, −1 h
  Lethality 24 h: 10%
  Lethality 24 h (dead/total): (2/20)
  Lethality 48 h: 35%
  Lethality 48 h (dead/total): (7/20)
  Lethality 72 h: 50%
  Lethality 72 h (dead/total): (10/20) c
[1]; different doses of LAP tested
  kinetic and cumulative rate of lethality (in words): unaffected
[1]; prophylactic treatment with 10 ucg
  cumulative rate of lethality (in words): markedly reduced
IL-10; 10 mcg LAP, 2 and 8 hours after LPS
  LPS-induced blood levels of IL-10 (in words): did not modify
IL-10; T0, 1 hour after 10 mcg LAP, before LPS, 0 out of 10 controls
  mice with detectable levels of IL-10 in the blood: 3 out of 10
[2]; early prophylaxis, 4 to 14 weeks of age, 2 of 8 vehicle controls
  NOD mice that developed diabetes during the treatment period: None and none
[2]; early prophylaxis, 10 mcg daily six times weekly from 4 to 14 weeks of age, vehicle 2±0.9
  insulitis score: 0.9±0.6
[2]; mice sacrificed at week 14
  azotemia and transaminases values vs controls: no differences
Con A-induced hepatitis; 8 hours after Con A
  reduction of ALAT vs controls: 84.7%
Con A-induced hepatitis; LAP 1 hour prior to and one hour after Con A, 8 hours after Con A, mean ± SD
  ALAT values: 686 ± 197b U/L
Con A-induced hepatitis; LAP 1 hour prior to and one hour after Con A, within 8 hours
  Lethality (dead before sacrifice/total): 1/15
IFN-γ
  LPS-induced blood levels of IFN-γ (in words): did not modify
[3]
  tolerability of long-term administration (clinical appearance and behaviours): apparently well tolerated
LPS-induced lethality; 1 mcg at −24, −1 h
  Lethality 72 h: (79%)
  Lethality 72 h (dead/total): 11/14
LPS-induced lethality; 10 mcg at +1 h
  Lethality 72 h: (71%)
  Lethality 72 h (dead/total): 10/14
LPS-induced lethality; 10 mcg at −1, +1 h
  Lethality 72 h: (14%)
  Lethality 72 h (dead/total): 2/14
LPS-induced lethality; 10 mcg at −24, −1 h
  Lethality 72 h: (14%)
  Lethality 72 h (dead/total): 2/14
LPS-induced lethality; 20 mcg at −1, +1 h
  Lethality 72 h: (100%)
  Lethality 72 h (dead/total): 14/14
TNF-α; 2 hours after sublethal LPS (0.5 mg/mouse), p=0.01
  reduction of TNF-α blood levels vs. controls: 37.3%
TNF-α; 8 hours after sublethal LPS (0.5 mg/mouse), p=0.005
  reduction of TNF-α blood levels vs. controls: 76.5%
CD4+CD25− T cells; 5 days co-culture
  CD4+CD25− T cell proliferation in response to antigen-pulsed APCs in the presence of the peptide: inhibited
CD4+CD25− T cells; APCs pre-treated for 24 hours
  T cell proliferation in response to APCs pre-treated with the peptide: not affected
